Test system: Stress protein genes
Assay: DNA chip mRNA expression in yeast, stress protein genes (Table 6)
Assay type: cell-based, Saccharomyces cerevisiae S288C
How it was run: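 Value is the scanned fluorescence intensity ratio of exposed versus chemical-free cells. Log-phase S288C yeast in YPD at 25° C. received one toxic substance for two hours, dosed to slow growth without killing; Cy3/Cy5-labeled cDNA from oligo-dT-purified mRNA was hybridized to a whole-genome chip at 65° C.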

C[S+](C)[O-] [(15), dimethylsulfoxide]
The level of expressed mRNA in the presence of chemical substance/The level of expressed mRNA in the absence of chemical substance (yeast gene YAL015C): 0.7
The level of expressed mRNA in the presence of chemical substance/The level of expressed mRNA in the absence of chemical substance (yeast gene YBR044C): 0.9
The level of expressed mRNA in the presence of chemical substance/The level of expressed mRNA in the absence of chemical substance (yeast gene YBR054W): 0.6
The level of expressed mRNA in the presence of chemical substance/The level of expressed mRNA in the absence of chemical substance (yeast gene YBR067C): 3.3
The level of expressed mRNA in the presence of chemical substance/The level of expressed mRNA in the absence of chemical substance (yeast gene YBR072W): 4.9
The level of expressed mRNA in the presence of chemical substance/The level of expressed mRNA in the absence of chemical substance (yeast gene YBR126C): 1.0
The level of expressed mRNA in the presence of chemical substance/The level of expressed mRNA in the absence of chemical substance (yeast gene YBR169C): 1.6
The level of expressed mRNA in the presence of chemical substance/The level of expressed mRNA in the absence of chemical substance (yeast gene YCR083W): 1.0
The level of expressed mRNA in the presence of chemical substance/The level of expressed mRNA in the absence of chemical substance (yeast gene YDL022W): 0.9
The level of expressed mRNA in the presence of chemical substance/The level of expressed mRNA in the absence of chemical substance (yeast gene YDL025C): 1.0
The level of expressed mRNA in the presence of chemical substance/The level of expressed mRNA in the absence of chemical substance (yeast gene YDR033W): 0.8
The level of expressed mRNA in the presence of chemical substance/The level of expressed mRNA in the absence of chemical substance (yeast gene YDR077W): 6.1
The level of expressed mRNA in the presence of chemical substance/The level of expressed mRNA in the absence of chemical substance (yeast gene YDR098C): 2.2
The level of expressed mRNA in the presence of chemical substance/The level of expressed mRNA in the absence of chemical substance (yeast gene YDR155C): 2.5
The level of expressed mRNA in the presence of chemical substance/The level of expressed mRNA in the absence of chemical substance (yeast gene YDR258C): 0.6
The level of expressed mRNA in the presence of chemical substance/The level of expressed mRNA in the absence of chemical substance (yeast gene YDR293C): 1.7
The level of expressed mRNA in the presence of chemical substance/The level of expressed mRNA in the absence of chemical substance (yeast gene YDR436W): 0.8
The level of expressed mRNA in the presence of chemical substance/The level of expressed mRNA in the absence of chemical substance (yeast gene YDR513W): 1.3
The level of expressed mRNA in the presence of chemical substance/The level of expressed mRNA in the absence of chemical substance (yeast gene YDR519W): 2.0
The level of expressed mRNA in the presence of chemical substance/The level of expressed mRNA in the absence of chemical substance (yeast gene YEL030W): 0.8
The level of expressed mRNA in the presence of chemical substance/The level of expressed mRNA in the absence of chemical substance (yeast gene YEL039C): 0.4
The level of expressed mRNA in the presence of chemical substance/The level of expressed mRNA in the absence of chemical substance (yeast gene YER042W): 1.0
The level of expressed mRNA in the presence of chemical substance/The level of expressed mRNA in the absence of chemical substance (yeast gene YER057C): 1.7
The level of expressed mRNA in the presence of chemical substance/The level of expressed mRNA in the absence of chemical substance (yeast gene YER125W): 0.8
The level of expressed mRNA in the presence of chemical substance/The level of expressed mRNA in the absence of chemical substance (yeast gene YFL014W): 6.3
The level of expressed mRNA in the presence of chemical substance/The level of expressed mRNA in the absence of chemical substance (yeast gene YFL016C): 0.8
The level of expressed mRNA in the presence of chemical substance/The level of expressed mRNA in the absence of chemical substance (yeast gene YFL020C): 1.4
The level of expressed mRNA in the presence of chemical substance/The level of expressed mRNA in the absence of chemical substance (yeast gene YFR052W): 1.4
The level of expressed mRNA in the presence of chemical substance/The level of expressed mRNA in the absence of chemical substance (yeast gene YGL073W): 0.9
The level of expressed mRNA in the presence of chemical substance/The level of expressed mRNA in the absence of chemical substance (yeast gene YGL115W): 0.7
The level of expressed mRNA in the presence of chemical substance/The level of expressed mRNA in the absence of chemical substance (yeast gene YGL181W): 1.5
The level of expressed mRNA in the presence of chemical substance/The level of expressed mRNA in the absence of chemical substance (yeast gene YGR088W): 0.7
The level of expressed mRNA in the presence of chemical substance/The level of expressed mRNA in the absence of chemical substance (yeast gene YHL028W): 0.6
The level of expressed mRNA in the presence of chemical substance/The level of expressed mRNA in the absence of chemical substance (yeast gene YHL046C): 1.0
The level of expressed mRNA in the presence of chemical substance/The level of expressed mRNA in the absence of chemical substance (yeast gene YHR057C): 1.2
The level of expressed mRNA in the presence of chemical substance/The level of expressed mRNA in the absence of chemical substance (yeast gene YHR104W): 1.6
The level of expressed mRNA in the presence of chemical substance/The level of expressed mRNA in the absence of chemical substance (yeast gene YIL011W): 0.9
The level of expressed mRNA in the presence of chemical substance/The level of expressed mRNA in the absence of chemical substance (yeast gene YIL033C): 1.0
The level of expressed mRNA in the presence of chemical substance/The level of expressed mRNA in the absence of chemical substance (yeast gene YIR037W): 1.0
The level of expressed mRNA in the presence of chemical substance/The level of expressed mRNA in the absence of chemical substance (yeast gene YIR038C): 1.2
The level of expressed mRNA in the presence of chemical substance/The level of expressed mRNA in the absence of chemical substance (yeast gene YJL128C): 1.2
The level of expressed mRNA in the presence of chemical substance/The level of expressed mRNA in the absence of chemical substance (yeast gene YJL158C): 1.7
The level of expressed mRNA in the presence of chemical substance/The level of expressed mRNA in the absence of chemical substance (yeast gene YJL165C): 1.0
The level of expressed mRNA in the presence of chemical substance/The level of expressed mRNA in the absence of chemical substance (yeast gene YJR045C): 2.3
The level of expressed mRNA in the presence of chemical substance/The level of expressed mRNA in the absence of chemical substance (yeast gene YJR090C): 1.6
The level of expressed mRNA in the presence of chemical substance/The level of expressed mRNA in the absence of chemical substance (yeast gene YKL161C): 1.3
The level of expressed mRNA in the presence of chemical substance/The level of expressed mRNA in the absence of chemical substance (yeast gene YKL164C): 1.2
The level of expressed mRNA in the presence of chemical substance/The level of expressed mRNA in the absence of chemical substance (yeast gene YKL210W): 1.0
The level of expressed mRNA in the presence of chemical substance/The level of expressed mRNA in the absence of chemical substance (yeast gene YKR053C): 0.3
The level of expressed mRNA in the presence of chemical substance/The level of expressed mRNA in the absence of chemical substance (yeast gene YLL024C): 1.3
The level of expressed mRNA in the presence of chemical substance/The level of expressed mRNA in the absence of chemical substance (yeast gene YLL026W): 0.9
The level of expressed mRNA in the presence of chemical substance/The level of expressed mRNA in the absence of chemical substance (yeast gene YLL060C): 1.5
The level of expressed mRNA in the presence of chemical substance/The level of expressed mRNA in the absence of chemical substance (yeast gene YLR006C): 0.9
The level of expressed mRNA in the presence of chemical substance/The level of expressed mRNA in the absence of chemical substance (yeast gene YLR109W): 3.9
The level of expressed mRNA in the presence of chemical substance/The level of expressed mRNA in the absence of chemical substance (yeast gene YML007W): 1.0
The level of expressed mRNA in the presence of chemical substance/The level of expressed mRNA in the absence of chemical substance (yeast gene YML070W): 0.9
The level of expressed mRNA in the presence of chemical substance/The level of expressed mRNA in the absence of chemical substance (yeast gene YMR021C): 1.0
The level of expressed mRNA in the presence of chemical substance/The level of expressed mRNA in the absence of chemical substance (yeast gene YMR173W): 2.5
The level of expressed mRNA in the presence of chemical substance/The level of expressed mRNA in the absence of chemical substance (yeast gene YMR186W): 1.3
The level of expressed mRNA in the presence of chemical substance/The level of expressed mRNA in the absence of chemical substance (yeast gene YNL064C): 0.7
The level of expressed mRNA in the presence of chemical substance/The level of expressed mRNA in the absence of chemical substance (yeast gene YNL160W): 0.7
The level of expressed mRNA in the presence of chemical substance/The level of expressed mRNA in the absence of chemical substance (yeast gene YNR076W): 1.1
The level of expressed mRNA in the presence of chemical substance/The level of expressed mRNA in the absence of chemical substance (yeast gene YOL064C): 1.0
The level of expressed mRNA in the presence of chemical substance/The level of expressed mRNA in the absence of chemical substance (yeast gene YOL161C): 1.1
The level of expressed mRNA in the presence of chemical substance/The level of expressed mRNA in the absence of chemical substance (yeast gene YOR008C): 0.9
The level of expressed mRNA in the presence of chemical substance/The level of expressed mRNA in the absence of chemical substance (yeast gene YOR009W): 0.6
The level of expressed mRNA in the presence of chemical substance/The level of expressed mRNA in the absence of chemical substance (yeast gene YOR010C): 0.6
The level of expressed mRNA in the presence of chemical substance/The level of expressed mRNA in the absence of chemical substance (yeast gene YOR027W): 1.4
The level of expressed mRNA in the presence of chemical substance/The level of expressed mRNA in the absence of chemical substance (yeast gene YPL059W): 1.0
The level of expressed mRNA in the presence of chemical substance/The level of expressed mRNA in the absence of chemical substance (yeast gene YPL106C): 1.1
The level of expressed mRNA in the presence of chemical substance/The level of expressed mRNA in the absence of chemical substance (yeast gene YPL140C): 0.7
The level of expressed mRNA in the presence of chemical substance/The level of expressed mRNA in the absence of chemical substance (yeast gene YPL194W): 1.4
The level of expressed mRNA in the presence of chemical substance/The level of expressed mRNA in the absence of chemical substance (yeast gene YPL223C): 1.5
The level of expressed mRNA in the presence of chemical substance/The level of expressed mRNA in the absence of chemical substance (yeast gene YPL240C): 1.2
The level of expressed mRNA in the presence of chemical substance/The level of expressed mRNA in the absence of chemical substance (yeast gene YPR005C): 2.7

— patent US8192962B2, “Processes for detecting toxic substances” (Daikin Industries, Ltd., priority 2001, dated 2012)
